Experimental data taken from ChEMBL document CHEMBL5465560, “Selectivity Literature for EUbOPEN Chemogenomic Library” (2024).

Experiments:
[1] = target: Ribosomal protein S6 kinase alpha-3 (Homo sapiens, UniProt P51812); test: Selectivity interaction (KinomeScan (DiscoverX)) EUB0000666a RPS6KA3; settings: at 10 µM
[2] = test system: Epidermal growth factor receptor (Homo sapiens), P00533 [UNDEFINED MUTATION]; settings: at 10 µM
[3] = target: T1, Serine/threonine-protein kinase NLK (Homo sapiens) (UniProt Q9UBE8); settings: at 10 µM
T1 sequence (whole entry): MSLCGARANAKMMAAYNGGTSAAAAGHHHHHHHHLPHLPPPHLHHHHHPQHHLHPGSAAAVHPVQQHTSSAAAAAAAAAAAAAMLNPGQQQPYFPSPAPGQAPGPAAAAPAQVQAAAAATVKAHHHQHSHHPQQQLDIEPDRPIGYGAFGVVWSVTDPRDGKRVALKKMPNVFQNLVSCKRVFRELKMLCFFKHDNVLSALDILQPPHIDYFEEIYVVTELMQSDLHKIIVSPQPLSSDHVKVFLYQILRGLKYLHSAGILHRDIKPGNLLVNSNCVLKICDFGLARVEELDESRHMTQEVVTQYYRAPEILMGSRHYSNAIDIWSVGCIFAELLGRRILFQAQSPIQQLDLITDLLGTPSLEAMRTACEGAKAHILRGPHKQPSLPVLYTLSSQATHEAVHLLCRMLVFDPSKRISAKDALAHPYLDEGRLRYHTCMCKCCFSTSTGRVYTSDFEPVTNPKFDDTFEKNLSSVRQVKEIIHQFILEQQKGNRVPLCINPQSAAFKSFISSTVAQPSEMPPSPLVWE

[4] = target: Ephrin type-A receptor 2 (Homo sapiens) (UniProt P29317); test: Selectivity interaction (Millipore kinase profiler) EUB0000124b EPHA2; settings: at 10 µM
Sequence of Ephrin type-A receptor 2 (Homo sapiens) (P29317 whole entry): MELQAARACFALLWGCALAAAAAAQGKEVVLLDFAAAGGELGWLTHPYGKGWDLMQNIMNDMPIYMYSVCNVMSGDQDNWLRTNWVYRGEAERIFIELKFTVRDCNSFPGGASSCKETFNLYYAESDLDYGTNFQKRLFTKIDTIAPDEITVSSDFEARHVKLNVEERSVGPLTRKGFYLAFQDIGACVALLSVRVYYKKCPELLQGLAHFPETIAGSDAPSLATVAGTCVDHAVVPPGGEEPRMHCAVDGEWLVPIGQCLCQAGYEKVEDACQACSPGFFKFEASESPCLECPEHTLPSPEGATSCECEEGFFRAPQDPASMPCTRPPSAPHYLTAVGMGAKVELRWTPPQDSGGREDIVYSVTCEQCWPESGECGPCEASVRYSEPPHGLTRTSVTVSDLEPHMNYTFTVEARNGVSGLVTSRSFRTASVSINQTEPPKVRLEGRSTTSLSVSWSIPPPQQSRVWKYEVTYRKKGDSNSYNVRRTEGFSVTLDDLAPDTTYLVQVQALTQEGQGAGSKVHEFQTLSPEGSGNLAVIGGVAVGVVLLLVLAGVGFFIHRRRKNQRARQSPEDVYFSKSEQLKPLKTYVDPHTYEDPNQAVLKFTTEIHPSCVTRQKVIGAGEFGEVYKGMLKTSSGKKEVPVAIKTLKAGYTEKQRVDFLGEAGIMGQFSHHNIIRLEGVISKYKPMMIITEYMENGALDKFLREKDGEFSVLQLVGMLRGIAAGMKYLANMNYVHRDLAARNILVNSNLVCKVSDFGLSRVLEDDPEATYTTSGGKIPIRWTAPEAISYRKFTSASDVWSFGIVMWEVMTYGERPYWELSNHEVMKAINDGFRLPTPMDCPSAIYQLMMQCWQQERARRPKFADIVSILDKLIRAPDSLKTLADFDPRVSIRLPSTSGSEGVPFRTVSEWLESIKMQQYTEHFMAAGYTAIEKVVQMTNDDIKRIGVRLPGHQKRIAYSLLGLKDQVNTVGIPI

[5] = target: ALK tyrosine kinase receptor (Homo sapiens, UniProt Q9UM73); test: Selectivity interaction (ProQinase) EUB0000171b ALK; settings: at 1 µM
Sequence of ALK tyrosine kinase receptor (Q9UM73 19-1620 limits assumed): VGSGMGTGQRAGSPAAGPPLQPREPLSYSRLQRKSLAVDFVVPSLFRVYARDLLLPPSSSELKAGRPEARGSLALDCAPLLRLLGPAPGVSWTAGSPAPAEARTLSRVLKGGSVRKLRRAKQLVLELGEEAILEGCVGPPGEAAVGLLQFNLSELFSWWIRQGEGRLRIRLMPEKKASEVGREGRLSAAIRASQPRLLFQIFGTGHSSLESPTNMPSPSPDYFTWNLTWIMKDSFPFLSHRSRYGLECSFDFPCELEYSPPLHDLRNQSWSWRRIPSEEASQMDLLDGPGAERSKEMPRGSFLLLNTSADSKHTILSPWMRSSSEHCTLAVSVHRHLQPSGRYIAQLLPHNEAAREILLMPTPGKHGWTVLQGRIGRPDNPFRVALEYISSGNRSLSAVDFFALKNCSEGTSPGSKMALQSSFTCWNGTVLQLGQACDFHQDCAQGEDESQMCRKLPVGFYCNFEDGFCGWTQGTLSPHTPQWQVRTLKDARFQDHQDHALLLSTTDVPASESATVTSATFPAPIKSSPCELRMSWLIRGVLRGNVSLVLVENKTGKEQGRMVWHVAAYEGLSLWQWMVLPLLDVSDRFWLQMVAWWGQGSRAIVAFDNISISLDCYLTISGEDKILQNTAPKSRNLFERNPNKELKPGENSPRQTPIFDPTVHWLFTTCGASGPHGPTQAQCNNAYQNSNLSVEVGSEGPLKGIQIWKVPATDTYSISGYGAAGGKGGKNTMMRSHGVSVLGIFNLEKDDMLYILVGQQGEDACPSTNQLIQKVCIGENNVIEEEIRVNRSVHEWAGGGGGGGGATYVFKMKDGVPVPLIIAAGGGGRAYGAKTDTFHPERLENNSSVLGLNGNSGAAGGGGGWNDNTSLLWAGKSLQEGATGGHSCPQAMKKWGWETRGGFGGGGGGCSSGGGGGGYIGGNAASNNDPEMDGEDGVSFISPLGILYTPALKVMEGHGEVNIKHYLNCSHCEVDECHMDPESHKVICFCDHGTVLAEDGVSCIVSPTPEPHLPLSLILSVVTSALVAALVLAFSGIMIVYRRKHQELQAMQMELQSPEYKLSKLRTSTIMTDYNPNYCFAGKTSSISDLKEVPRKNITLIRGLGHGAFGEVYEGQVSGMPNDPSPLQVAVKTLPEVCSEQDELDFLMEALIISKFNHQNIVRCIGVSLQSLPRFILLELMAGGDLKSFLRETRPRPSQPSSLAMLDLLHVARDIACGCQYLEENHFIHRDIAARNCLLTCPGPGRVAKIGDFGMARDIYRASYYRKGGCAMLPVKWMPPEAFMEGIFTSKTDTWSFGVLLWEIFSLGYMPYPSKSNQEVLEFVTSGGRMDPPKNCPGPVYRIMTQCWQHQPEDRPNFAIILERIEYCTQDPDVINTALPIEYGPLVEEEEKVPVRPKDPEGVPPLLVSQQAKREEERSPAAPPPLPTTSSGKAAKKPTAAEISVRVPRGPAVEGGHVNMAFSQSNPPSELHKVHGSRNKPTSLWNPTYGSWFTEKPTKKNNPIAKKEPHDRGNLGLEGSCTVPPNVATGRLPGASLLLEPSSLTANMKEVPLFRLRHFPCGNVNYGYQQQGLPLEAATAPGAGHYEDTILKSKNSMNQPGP

[6] = target: T2, Eukaryotic elongation factor 2 kinase (Homo sapiens) (UniProt O00418); test: Selectivity interaction (Kinase panel (literature)) EUB0001199aCl EEF2K; settings: at 1 µM
T2 sequence (whole entry): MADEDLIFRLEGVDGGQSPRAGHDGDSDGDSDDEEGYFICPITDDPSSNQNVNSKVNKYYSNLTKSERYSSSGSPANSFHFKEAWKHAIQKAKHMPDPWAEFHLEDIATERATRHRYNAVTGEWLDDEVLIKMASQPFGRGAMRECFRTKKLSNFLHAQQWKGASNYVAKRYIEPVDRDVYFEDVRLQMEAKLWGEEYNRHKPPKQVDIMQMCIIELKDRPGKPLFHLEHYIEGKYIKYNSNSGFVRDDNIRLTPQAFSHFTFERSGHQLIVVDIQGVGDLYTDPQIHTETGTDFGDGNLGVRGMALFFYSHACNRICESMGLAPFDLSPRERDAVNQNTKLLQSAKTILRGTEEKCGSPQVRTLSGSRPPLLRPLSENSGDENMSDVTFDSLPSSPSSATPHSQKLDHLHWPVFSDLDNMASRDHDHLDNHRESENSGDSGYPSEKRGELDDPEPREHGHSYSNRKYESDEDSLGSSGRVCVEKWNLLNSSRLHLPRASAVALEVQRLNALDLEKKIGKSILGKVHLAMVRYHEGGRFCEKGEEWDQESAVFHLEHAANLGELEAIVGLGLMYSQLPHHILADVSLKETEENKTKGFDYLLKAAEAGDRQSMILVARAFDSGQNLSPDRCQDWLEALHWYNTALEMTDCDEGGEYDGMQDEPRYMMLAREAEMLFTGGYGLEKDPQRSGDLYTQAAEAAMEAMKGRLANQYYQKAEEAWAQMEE

[7] = target: T3, Tyrosine-protein kinase JAK3 (Homo sapiens) (UniProt P52333); test: Selectivity interaction (KinomeScan (DiscoverX)) EUB0000618a JAK3; settings: at 10 µM
T3 sequence (whole entry): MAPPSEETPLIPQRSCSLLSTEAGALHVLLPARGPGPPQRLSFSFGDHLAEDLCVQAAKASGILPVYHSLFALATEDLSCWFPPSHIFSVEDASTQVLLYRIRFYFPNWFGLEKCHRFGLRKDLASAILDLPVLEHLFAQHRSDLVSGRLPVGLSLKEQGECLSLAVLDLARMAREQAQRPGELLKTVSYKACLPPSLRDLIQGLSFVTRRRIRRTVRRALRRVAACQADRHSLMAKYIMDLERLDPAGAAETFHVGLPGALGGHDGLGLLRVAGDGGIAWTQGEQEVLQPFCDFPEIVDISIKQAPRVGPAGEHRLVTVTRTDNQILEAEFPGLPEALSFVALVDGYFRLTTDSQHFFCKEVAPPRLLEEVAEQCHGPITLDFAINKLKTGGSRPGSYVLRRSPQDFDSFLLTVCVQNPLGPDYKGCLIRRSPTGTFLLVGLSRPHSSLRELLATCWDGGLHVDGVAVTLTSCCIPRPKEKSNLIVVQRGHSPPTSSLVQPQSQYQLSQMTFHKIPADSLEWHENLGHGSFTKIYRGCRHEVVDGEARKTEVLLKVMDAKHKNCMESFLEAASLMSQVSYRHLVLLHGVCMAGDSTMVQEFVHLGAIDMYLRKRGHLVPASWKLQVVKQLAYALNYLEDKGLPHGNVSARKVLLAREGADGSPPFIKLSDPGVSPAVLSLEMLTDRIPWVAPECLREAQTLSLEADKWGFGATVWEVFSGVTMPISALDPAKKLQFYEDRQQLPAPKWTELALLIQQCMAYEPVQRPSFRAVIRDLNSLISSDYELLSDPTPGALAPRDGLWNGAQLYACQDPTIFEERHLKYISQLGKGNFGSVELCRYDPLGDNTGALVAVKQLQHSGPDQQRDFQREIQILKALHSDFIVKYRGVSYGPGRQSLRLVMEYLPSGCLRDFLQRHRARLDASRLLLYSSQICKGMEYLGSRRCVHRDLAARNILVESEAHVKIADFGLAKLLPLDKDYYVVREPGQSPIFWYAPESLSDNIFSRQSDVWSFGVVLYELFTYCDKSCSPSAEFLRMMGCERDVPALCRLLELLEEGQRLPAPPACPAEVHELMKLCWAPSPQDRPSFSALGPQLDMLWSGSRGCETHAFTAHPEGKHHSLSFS

[8] = target: Ribosomal protein S6 kinase alpha-6 (Homo sapiens, UniProt Q9UK32); test: Selectivity interaction (KinomeScan (DiscoverX)) EUB0000618a RPS6KA6; settings: at 10 µM
[9] = target: Citron Rho-interacting kinase (Homo sapiens) (UniProt O14578); test: Selectivity interaction (Ambit KINOMEscan and KiNATiv profiling in Jurkat cells) EUB0000090b CIT; format: cell-based; settings: at 1 µM

Sequence of Epidermal growth factor receptor (Homo sapiens), P00533 [UNDEFINED MUTATION] (P00533 whole entry, looked up, change not shown): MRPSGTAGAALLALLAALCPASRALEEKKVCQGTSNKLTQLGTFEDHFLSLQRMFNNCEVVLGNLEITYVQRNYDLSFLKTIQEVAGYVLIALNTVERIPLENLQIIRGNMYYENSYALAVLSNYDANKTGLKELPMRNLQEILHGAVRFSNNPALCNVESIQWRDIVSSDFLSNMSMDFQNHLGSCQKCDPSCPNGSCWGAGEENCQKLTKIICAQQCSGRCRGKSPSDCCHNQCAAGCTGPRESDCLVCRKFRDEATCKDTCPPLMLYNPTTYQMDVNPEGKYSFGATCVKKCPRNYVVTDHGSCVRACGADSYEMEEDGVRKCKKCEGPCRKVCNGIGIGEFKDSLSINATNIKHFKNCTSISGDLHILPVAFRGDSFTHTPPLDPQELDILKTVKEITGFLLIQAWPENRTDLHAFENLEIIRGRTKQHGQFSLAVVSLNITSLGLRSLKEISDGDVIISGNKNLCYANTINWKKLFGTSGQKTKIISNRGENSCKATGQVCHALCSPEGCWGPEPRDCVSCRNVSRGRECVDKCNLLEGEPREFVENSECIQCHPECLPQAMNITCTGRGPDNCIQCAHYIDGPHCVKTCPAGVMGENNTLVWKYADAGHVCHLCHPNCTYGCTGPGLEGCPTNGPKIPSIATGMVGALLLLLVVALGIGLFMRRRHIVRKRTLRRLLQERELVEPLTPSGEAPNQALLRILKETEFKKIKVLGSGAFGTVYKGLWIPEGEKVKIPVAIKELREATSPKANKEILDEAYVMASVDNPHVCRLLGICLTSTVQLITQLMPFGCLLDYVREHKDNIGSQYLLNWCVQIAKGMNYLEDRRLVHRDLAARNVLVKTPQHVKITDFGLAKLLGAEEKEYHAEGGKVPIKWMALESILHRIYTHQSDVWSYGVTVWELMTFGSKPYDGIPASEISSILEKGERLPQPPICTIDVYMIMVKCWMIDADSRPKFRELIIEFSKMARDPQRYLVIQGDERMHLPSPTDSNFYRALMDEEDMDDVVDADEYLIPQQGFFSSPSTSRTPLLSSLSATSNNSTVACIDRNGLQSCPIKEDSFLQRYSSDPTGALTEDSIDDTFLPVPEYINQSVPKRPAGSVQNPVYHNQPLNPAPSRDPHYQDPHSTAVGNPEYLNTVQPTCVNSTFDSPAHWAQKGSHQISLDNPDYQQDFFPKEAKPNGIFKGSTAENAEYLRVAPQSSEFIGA
Sequence of Ribosomal protein S6 kinase alpha-3 (P51812 whole entry): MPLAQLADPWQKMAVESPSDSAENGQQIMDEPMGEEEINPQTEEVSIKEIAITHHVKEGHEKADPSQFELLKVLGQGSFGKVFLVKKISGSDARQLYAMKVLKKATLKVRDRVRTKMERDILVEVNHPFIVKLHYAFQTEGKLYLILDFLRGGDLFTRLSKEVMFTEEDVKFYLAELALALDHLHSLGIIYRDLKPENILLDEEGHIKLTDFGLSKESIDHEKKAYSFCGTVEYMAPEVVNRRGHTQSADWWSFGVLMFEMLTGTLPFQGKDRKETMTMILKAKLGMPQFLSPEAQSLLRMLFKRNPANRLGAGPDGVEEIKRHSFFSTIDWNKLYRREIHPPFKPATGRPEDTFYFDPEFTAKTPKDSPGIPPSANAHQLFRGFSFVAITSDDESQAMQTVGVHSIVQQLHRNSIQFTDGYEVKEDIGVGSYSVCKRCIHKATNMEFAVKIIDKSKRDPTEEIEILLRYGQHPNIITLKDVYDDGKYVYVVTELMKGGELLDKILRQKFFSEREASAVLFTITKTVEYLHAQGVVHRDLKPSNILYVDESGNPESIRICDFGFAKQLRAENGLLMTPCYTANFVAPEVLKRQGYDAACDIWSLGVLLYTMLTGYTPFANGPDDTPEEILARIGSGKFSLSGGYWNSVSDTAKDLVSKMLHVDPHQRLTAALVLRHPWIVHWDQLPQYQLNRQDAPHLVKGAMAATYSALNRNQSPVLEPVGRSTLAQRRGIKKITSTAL

## O=C(NOC[C@H](O)CO)c1ccc(F)c(F)c1Nc1ccc(I)cc1F
[1]
  % of control: 100%

## Cc1cc([C@@H](C)Nc2ccccc2C(=O)O)c2nc(N3CCOCC3)cc(=O)n2c1 [AZD-6482]
[2]
  % of control: 100%
[3]
  % of control: 94%

## CC(=O)Nc1cccc(-n2c(=O)n(C3CC3)c(=O)c3c(Nc4ccc(I)cc4F)n(C)c(=O)c(C)c32)c1
[4]
  % of control: 93%

## C=CC(=O)Nc1cccc(C(=O)Nc2ccc(Nc3cc(-c4[nH]c(SC)nc4C)ccn3)cc2)c1
[5]
  % of control: 94%

## CN1Cc2nccc(-c3cn(C)nc3-c3ccc(F)cc3)c2C1=O
[6]
  % of inhibition: -5%

## O[C@H]1CC[C@H](Nc2ncc3nc(Nc4c(F)cc(F)cc4F)n([C@H]4CCOC4)c3n2)CC1
[7]
  % of control: 90%
[8]
  % of control: 49%

## CN(C)C/C=C/C(=O)Nc1ccc(C(=O)N2CCCC(Nc3ncc(Cl)c(-c4c[nH]c5ccccc45)n3)C2)cc1 (centres undefined)
[9]
  % of control: 83%
